Laboratory results reported in paper PMC9186412, “Rational Framework for the Design of Trp- and Arg-Rich Peptide Antibiotics Against Multidrug-Resistant Bacteria” (Frontiers in Microbiology, 2022).
Converted amounts (≈) assume the structure as drawn. Read-outs that look alike come from different tables or passages of the source. Where no end group is shown, it is not given here.

What was measured:
[1] = test system: S. aureus; experiment: microbe, parasite or virus in culture; type: cell-based; details: Staphylococcus aureus, 18 h, MHB2, 18 h, 37°C
Method: (§1) Bacterial clinical isolates, used for initial screening and in previous studies ([Deslouches et al., 2013]; [Lin et al., 2018]), were anonymously provided by the clinical microbiology laboratory of the University of Pittsburgh medical Center. The panel used for secondary screening was from [CDC (2013)] (Supplementary Table 3), with resistance profiles data. Bacteria are stored in lock-secured –80°C freezer and typically retrieved by obtaining single colonies on agar plates prior for subsequent liquid broth cultures. Suspensions of test bacteria were prepared from log phase of growth by diluting overnight cultures at 1:100 with fresh cation-adjusted MHB (MHB2, Millipore Sigma, United States) and incubating for additional 3–4 h. Bacteria were spun at 3,000 × g for 10 min and the pellet resuspended in test condition media (Millipore Sigma, United States) to determine bacterial turbidity using a Den-1B densitometer (Grant Instruments, United States) at 0.5 McFarland (unit of bacterial density) corresponding to […].
(§2) To examine antibacterial activity, we used minor modifications of a standard growth inhibition assay endorsed by the Clinical and Laboratory Standards Institute (CLSI), as previously described ([Deslouches et al., 2013]). Bacteria were incubated with each of the indicated peptides in MHB2. The bacterial cells were kept in an incubator for 18 h at 37°C, which is linked to a robotic system that feeds a plate reader every hour with one of 8 × 96-well plates. This set-up allows the collection of growth kinetic data at A 570 (absorbance at 570 nm) to examine growth inhibition in real time (BioTek Instruments, United States). […] The assays are typically repeated a second time. If the MIC is different, a third experimental trial is performed to confirm the MIC. To assess bactericidal properties of the peptide, the assay was modified by using 15% fetal bovine serum (FBS, for a more physiologically relevant test condition) mixed with 25% MHB2 and 60% PBS. Bacterial cells (colony forming unit/mL or CFU/mL) were enumerated after incubating treated bacteria for 3 h and plating serially diluted samples on broth agar medium at 37°C overnight. Minimum bactericidal concentration (MBC) was determined as the peptide concentration at which complete bacterial killing was observed. […] Data were analyzed using GraphPad Prism software.

[2] = test system: CDC AR isolates; parameters: key: S (green), susceptible; I (blue), intermediate; R (red), resistant; details: data provided by the CDC, ref CDC, cited from earlier work
Source text: Supplement Table_3.XLSX, sheet "CDC AR isolates profiles" | column: G(-) strains

[3] = test system: E. Faecium; experiment: microbe, parasite or virus in culture; type: cell-based, Enterococcus Facium; details: Enterococcus faecium, 18 h, MHB2, 18 h, 37°C
Method: as §1, §2

[4] = test system: P. aeruginosa; experiment: microbe, parasite or virus in culture; type: cell-based, Pseudomonas aeruginosa; details: Pseudomonas aeruginosa, 18 h, MHB2, 18 h, 37°C
Method: as §1, §2

[5] = test system: K. pneumoniae; experiment: microbe, parasite or virus in culture; type: cell-based, Klebsiella pneumoniae; details: 18 h
Method: as §1, §2

[6] = test system: E. coli; experiment: microbe, parasite or virus in culture; type: cell-based, Escherichia coli; details: Escherichia coli, 18 h, MHB2, 18 h, 37°C
Method: as §1, §2

[7] = test system: A. baumannii; experiment: microbe, parasite or virus in culture; type: cell-based, Acinetobacter baumannii; details: Acinetobacter baumannii, 18 h, MHB2, 18 h, 37°C
Method: as §1, §2

[8] = test system: Enterobacter spp; experiment: microbe, parasite or virus in culture; type: cell-based, Enterobacter spp (aerogenes, cloacae); details: Enterobacter, 18 h, UPMC, MHB2, 18 h, 37°C
Method: as §1, §2

[9] = test system: CDC AR isolates; parameters: key: S (green), susceptible; I (blue), intermediate; R (red), resistant; details: Staphylococcus aureus SA461, CDC AR isolate; data provided by the CDC; ref CDC; cited from earlier work
[10] = test system: ESKAPE pathogens and Escherichia coli; details: ESKAPE pathogens and
Method: Bacteria were incubated with each of the indicated peptides in MHB2. […] To assess bactericidal properties of the peptide, the assay was modified by using 15% fetal bovine serum (FBS, for a more physiologically relevant test condition) mixed with 25% MHB2 and 60% PBS. […] Data were analyzed using GraphPad Prism software.

[11] = test system: CD-1 mice; experiment: Mouse toxicity, maximum tolerated dose (IV); type: in vivo
Method: For all animal experiments, we used the protocol #18071776 approved by the Institutional Animal Care and Use Committee (IACUC) of the University of Pittsburgh, which is consistent with the NIH guide for the care and use of laboratory animals. In a preliminary (pilot) experiment, female CD-1 mice (three per group) weighing about 20 g were injected different doses of peptides up to 45mpk via a lateral tail vein (IV) to determine an MTD (dose that results in no apparent morbidity or mortality). To confirm the MTD determined in the pilot study, CD-1 mice (seven per group) were randomized to receive a dose based on the preliminary MTD (IV) or PBS (100 μL). The animals were monitored for up to 7 days for morbidity and survival.

[12] = Enterobacter cloacae E62, CDC AR isolate
[13] = Enterobacter cloacae E544, CDC AR isolate
[14] = Enterobacter cloacae E545, CDC AR isolate
[15] = Enterobacter cloacae E546, CDC AR isolate
[16] = Escherichia coli EC541, CDC AR isolate
[17] = Escherichia coli EC543, CDC AR isolate
[18] = Escherichia coli EC544, CDC AR isolate
[19] = Escherichia coli EC549, CDC AR isolate
[20] = Klebsiella pneumoniae KP542, CDC AR isolate
[21] = Klebsiella pneumoniae KP548, CDC AR isolate
[22] = Klebsiella pneumoniae KP550, CDC AR isolate
[23] = Klebsiella pneumoniae KP552, CDC AR isolate

## Cc1nnc(SCC2=C(C(=O)O)N3C(=O)[C@@H](NC(=O)Cn4cnnn4)[C@H]3SC2)s1 [Cefazolin, reference compound]
[1]; strain SA12212, UPMC
  MIC: 16 µM (≈ 7.27 µg/mL)
[1]; strain SA18710, UPMC
  MIC: 16 µM (≈ 7.27 µg/mL)
[1]; strain SA49775
  MIC: 2 µM (≈ 0.909 µg/mL)
[1]; strain SA-US300
  MIC: 8 µM (≈ 3.64 µg/mL)
[2]; [12]
  Antibiotic susceptibility profile: R
[2]; [13]
  Antibiotic susceptibility profile: R
[2]; [14]
  Antibiotic susceptibility profile: R
[2]; [15]
  Antibiotic susceptibility profile: R
[2]; [16]
  Antibiotic susceptibility profile: R
[2]; [17]
  Antibiotic susceptibility profile: R
[2]; [18]
  Antibiotic susceptibility profile: R
[2]; [19]
  Antibiotic susceptibility profile: R
[2]; [20]
  Antibiotic susceptibility profile: R
[2]; [21]
  Antibiotic susceptibility profile: R
[2]; [22]
  Antibiotic susceptibility profile: R
[2]; [23]
  Antibiotic susceptibility profile: R
[3]; strain EF23614, UPMC
  MIC: > 16 µM
[3]; strain EF24670, UPMC
  MIC: > 16 µM
[3]; strain EF26215, UPMC
  MIC: 4 µM (≈ 1.82 µg/mL)
[3]; strain EF26692, UPMC
  MIC: 4 µM (≈ 1.82 µg/mL)

## CC(C)(O/N=C(\C(=O)N[C@@H]1C(=O)N2C(C(=O)[O-])=C(C[n+]3ccccc3)CS[C@H]12)c1csc(N)n1)C(=O)O [Ceftazidime, reference compound]
[4]; strain PA97-5, UPMC
  MIC: 1 µM (≈ 0.547 µg/mL)
[4]; strain PA129-5, UPMC
  MIC: 2 µM (≈ 1.09 µg/mL)
[2]; Acinetobacter baumannii AB273, CDC AR isolate
  Antibiotic susceptibility profile: R
[2]; Acinetobacter baumannii AB274, CDC AR isolate
  Antibiotic susceptibility profile: R
[2]; Acinetobacter baumannii AB275, CDC AR isolate
  Antibiotic susceptibility profile: R
[2]; Acinetobacter baumannii AB276, CDC AR isolate
  Antibiotic susceptibility profile: R
[2]; [12]
  Antibiotic susceptibility profile: S
[2]; [13]
  Antibiotic susceptibility profile: S
[2]; [14]
  Antibiotic susceptibility profile: S
[2]; [15]
  Antibiotic susceptibility profile: S
[2]; [16]
  Antibiotic susceptibility profile: S
[2]; [17]
  Antibiotic susceptibility profile: S
[2]; [18]
  Antibiotic susceptibility profile: S
[2]; [19]
  Antibiotic susceptibility profile: S
[2]; [20]
  Antibiotic susceptibility profile: R
[2]; [21]
  Antibiotic susceptibility profile: R
[2]; [22]
  Antibiotic susceptibility profile: R
[2]; [23]
  Antibiotic susceptibility profile: S
[2]; Pseudomonas aeruginosa PA229, CDC AR isolate
  Antibiotic susceptibility profile: R
[2]; Pseudomonas aeruginosa PA230, CDC AR isolate
  Antibiotic susceptibility profile: R
[2]; Pseudomonas aeruginosa PA231, CDC AR isolate
  Antibiotic susceptibility profile: R
[2]; Pseudomonas aeruginosa PA232, CDC AR isolate
  Antibiotic susceptibility profile: S
[2]; Pseudomonas aeruginosa PA239, CDC AR isolate
  Antibiotic susceptibility profile: R
[5]; Klebsiella pneumoniae, strain KP43816, MHB2, 18 h, 37°C
  MIC: 1 µM (≈ 0.547 µg/mL)
[5]; Klebsiella pneumoniae, strain KPA5 (colistin-resistant), UPMC, MHB2, 18 h, 37°C
  MIC: 12 µM (≈ 6.56 µg/mL)
[5]; Klebsiella pneumoniae, strain KPB3, UPMC, MHB2, 18 h, 37°C
  MIC: 8 µM (≈ 4.37 µg/mL)
[5]; Klebsiella pneumoniae, strain KPC3, UPMC, MHB2, 18 h, 37°C
  MIC: > 16 µM
[3]; strain EF23614, UPMC
  MIC: 8 µM (≈ 4.37 µg/mL)
[3]; strain EF24670, UPMC
  MIC: > 16 µM
[6]; strain Eco25922
  MIC: 1 µM (≈ 0.547 µg/mL)
[6]; strain YDC107, UPMC
  MIC: 4 µM (≈ 2.19 µg/mL)
[6]; strain YDC337, UPMC
  MIC: > 16 µM
[6]; strain YDC748, UPMC
  MIC: > 16 µM
[7]; strain AB-A2, UPMC clinical strain, A570, confirmed by 2nd or 3rd trial
  MIC: 1 µM (≈ 0.547 µg/mL)
[7]; strain AB-A3, UPMC
  MIC: > 16 µM
[7]; strain AB-F8, UPMC
  MIC: > 16 µM
[7]; strain AB-F9, UPMC
  MIC: 2 µM (≈ 1.09 µg/mL)
[8]; strain EA518 (aerogenes)
  MIC: > 16 µM
[8]; strain EA596 (aerogenes)
  MIC: > 16 µM
[8]; strain EC470 (cloacae)
  MIC: > 16 µM
[8]; strain EC560 (cloacae)
  MIC: > 16 µM

## Cc1onc(-c2ccccc2)c1C(=O)N[C@@H]1C(=O)N2[C@@H]1SC(C)(C)[C@@H]2C(=O)O [Oxacillin, reference compound]
[1]; strain SA12212, UPMC
  MIC: 8 µM (≈ 3.21 µg/mL)
[1]; strain SA18710, UPMC
  MIC: 4 µM (≈ 1.61 µg/mL)
[1]; strain SA49775
  MIC: 0.25 µM (≈ 0.1 µg/mL)
[1]; strain SA-US300
  MIC: 4 µM (≈ 1.61 µg/mL)
[2]; Staphylococcus aureus SA462, CDC AR isolate
  Antibiotic susceptibility profile: S
[2]; Staphylococcus aureus SA463, CDC AR isolate
  Antibiotic susceptibility profile: S
[2]; Staphylococcus aureus SA561, CDC AR isolate
  Antibiotic susceptibility profile: R
[3]; strain EF23614, UPMC
  MIC: 0.25 µM (≈ 0.1 µg/mL)
[3]; strain EF24670, UPMC
  MIC: > 16 µM
[3]; strain EF26215, UPMC
  MIC: 2 µM (≈ 0.803 µg/mL)
[3]; strain EF26692, UPMC
  MIC: 2 µM (≈ 0.803 µg/mL)
[9]
  Antibiotic susceptibility profile: S

## CC(C)C[C@H](NC(=O)[C@H](Cc1ccccc1)NC(=O)[C@@H]1CCCN1C(=O)[C@H](Cc1c[nH]c2ccccc12)NC(=O)[C@H](Cc1c[nH]c2ccccc12)NC(=O)[C@H](Cc1c[nH]c2ccccc12)NC(=O)[C@@H]1CCCN1C(=O)[C@H](Cc1ccccc1)NC(=O)[C@H](CCCNC(=N)N)NC(=O)[C@H](CCCNC(=N)N)NC(=O)[C@@H](N)C(C)C)C(=O)N[C@@H](CCCNC(=N)N)C(=O)N[C@@H](CCCNC(=N)N)C(=O)O [tritrpticin]
[10]
  mean MIC: > 10 µM

## H-RWVRRVRRVWRRVRRVVRRW-OH [E7]
other
  % RBC lysis: 5%

## RRVVRRWRRVVRRWVRVWRRVVRR [E3]
[5]
  MIC: 8 µM
other
  % RBC lysis: 17%

## RRVWRWVRRVWRWVRR [E35]
[11]; 7 CD-1 mice, 30 mpk systemically, monitored up to 7 days
  morbidity and mortality: no apparent morbidity and mortality
[11]; CD-1 mice, tail vein (IV), pilot with doses up to 45 mg/kg
  tolerated systemic dose (maximum tolerated dose, MTD): up to 30 mpk
other
  % RBC lysis: 22%
